From US6605625B2, “Ortho, meta-substituted bisaryl compounds, processes for their preparation, their use as medicaments, and pharmaceutical preparations comprising them” (Aventis Pharma Deutschland GmbH, priority 2000, dated 2003) come the findings set out here.

Bounds are passed on as bounds.

This experiment deals with T1, Kv1.5 channels from humans (Homo sapiens, UniProt P22460).
T1 construct: expressed in transfected cells; host or cells: Xenopus laevis oocytes injected with in vitro synthesized RNA
The experiment can be described thus: Kv1.5 currents in Xenopus oocytes, 2-microelectrode voltage clamp. The experiment is classed as cell-based. Conditions: human Kv1.5 expressed in Xenopus laevis oocytes; voltage jumps to 0 mV and 40 mV, 500 ms; room temperature; inhibition of Kv1.5 control current, Hill equation. As for the experimental part:
Kv1.5 channels from humans were expressed in Xenopus oocytes. To this end, oocytes from Xenopus laevis were first isolated and defolliculated. RNA coding for Kv1.5 synthesized in vitro was then injected into these oocytes. After a Kv1.5 protein expression for 1-7 days, Kv1.5 currents were measured on the oocytes using the 2-microelectrode voltage clamp technique. The Kv1.5 channels were in this case as a rule activated using voltage jumps to 0 mV and 40 mV lasting 500 ms. The bath was rinsed using a solution of the following composition: NaCl 96 mM, KCl 2 mM, CaCl2 1.8 mM, MgCl2 1 mM, HEPES 5 mM (titrated with NaOH to pH 7.4). These experiments were carried out at room temperature. The following were employed for data acquisition and analysis: Gene clamp amplifier (Axon Instruments, Foster City, USA) and MacLab D/A converter and software (ADInstruments, Castle Hill, Australia). The substances according to the invention were tested by adding them to the bath solution in different concentrations. The effects of the substances were calculated as the percentage inhibition of the Kv1.5 control current which was obtained when no substance was added to the solution. The data were then extrapolated using the Hill equation in order to determine the inhibition concentrations IC50 for the respective substances.

T1 sequence (P22460 whole entry): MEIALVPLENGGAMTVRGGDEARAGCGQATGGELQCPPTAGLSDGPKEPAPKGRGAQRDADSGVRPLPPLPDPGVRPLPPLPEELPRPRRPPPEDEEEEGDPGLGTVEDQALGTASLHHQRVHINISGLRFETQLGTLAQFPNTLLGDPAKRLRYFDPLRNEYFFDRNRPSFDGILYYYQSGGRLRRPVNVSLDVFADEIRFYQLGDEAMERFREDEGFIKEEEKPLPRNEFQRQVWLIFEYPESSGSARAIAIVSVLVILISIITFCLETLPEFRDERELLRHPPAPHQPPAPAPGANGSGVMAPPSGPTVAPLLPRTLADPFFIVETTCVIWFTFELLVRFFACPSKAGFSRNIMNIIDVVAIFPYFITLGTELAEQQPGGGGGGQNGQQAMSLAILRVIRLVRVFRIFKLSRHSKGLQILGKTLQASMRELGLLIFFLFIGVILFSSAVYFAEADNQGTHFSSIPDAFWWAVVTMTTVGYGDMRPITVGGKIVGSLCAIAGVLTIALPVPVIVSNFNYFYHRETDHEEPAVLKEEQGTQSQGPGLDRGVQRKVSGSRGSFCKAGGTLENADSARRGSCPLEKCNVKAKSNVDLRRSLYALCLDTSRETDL

For the compound `CC(C)(C)OC(=O)NCc1ccccc1-c1cccc(C(=O)NCc2ccc(F)cc2F)c1` [Example 2], the IC50 is < 100 µM.

On to `CC(C)(C)OC(=O)NCc1ccccc1-c1ccc(Cl)c(C(=O)NCc2ccc(F)cc2F)c1` [Example 3], for which the IC50 was < 100 µM.

As to `Cc1ccc(C(=O)NCCC(C)C)cc1-c1ccccc1CNC(=O)OC(C)(C)C` [Example 4], the IC50 turned out to be 6.1 µM.

`CC(C)CCNC(=O)c1cccc(-c2ccccc2CNC(=O)OC(C)(C)C)n1` [Example 5] registered a half-maximal inhibitory concentration (IC50) of 6 µM.

Consider `CC(C)(C)OC(=O)NCc1ccccc1-c1cccc(C(=O)NCc2ccc(F)cc2F)n1` [Example 6], for which the IC50 was < 100 µM.

Consider `CC(C)CCNC(=O)c1cncc(-c2ccccc2CNC(=O)OC(C)(C)C)c1` [Example 7], for which the IC50 was < 100 µM.

For `CC(C)(C)OC(=O)NCc1ccccc1-c1cncc(C(=O)NCc2ccc(F)cc2F)c1` [Example 8], the IC50 is < 100 µM.

On to `COc1ccc(NC(=O)c2cccc(-c3ccccc3CNC(=O)OC(C)(C)C)n2)cc1` [Example 9], for which the IC50 was determined as 3 µM.

Consider `CC(C)C[C@H](NC(=O)c1cccc(-c2ccccc2CNC(=O)OC(C)(C)C)n1)C(N)=O` [Example 10], for which the IC50 is < 100 µM.

Consider `CC(C)(C)OC(=O)NCc1ccccc1-c1cccc(C(=O)NCCc2ccccn2)n1` [Example 11], for which half-maximal inhibition (IC50) required 10 µM.

In the case of `C[C@H](OC(=O)NCc1ccccc1-c1cccc(C(=O)NCCc2ccccn2)n1)c1ccccc1` [Example 12, (S)-1-(Phenylethyl) {2-[6-(2-pyridin-2-ylethylcarbamoyl)pyridin-2-yl]benzyl}carbamate], the IC50 was found to be 2.2 µM.

In the case of `Cc1ccc(C(=O)NCCC(C)C)cc1-c1ccccc1CNC(=O)OCc1ccccc1` [Example 13], the IC50 worked out at 7 µM.

Turning to `CC(C)CCNC(=O)c1cccc(-c2ccccc2CNC(=O)OCc2ccccc2)c1` [Example 14], the IC50 was < 100 µM.

For `O=C(NCc1ccccc1-c1cccc(C(=O)NCc2ccc(F)cc2F)c1)OCc1ccccc1` [Example 15], the IC50 was < 100 µM.

In the case of `O=C(NCc1ccccc1-c1cccc(C(=O)NCc2ccc(F)cc2F)n1)OCc1ccccc1` [Example 16], the IC50 was < 100 µM.

For the compound `CC(C)CCNC(=O)c1cccc(-c2ccccc2CNC(=O)OCc2ccccc2)n1` [Example 17], the IC50 was < 100 µM.

For the compound `CC(C)C[C@H](NC(=O)c1cccc(-c2ccccc2CNC(=O)O[C@@H](C)c2ccccc2)n1)C(N)=O` [Example 18], the IC50 is 4.2 µM.

On to `COc1ccc(NC(=O)c2cccc(-c3ccccc3CNC(=O)O[C@@H](C)c3ccccc3)n2)cc1` [Example 19], for which the IC50 came to 2 µM.

Consider `COc1ccc(CC(=O)NCc2ccccc2-c2cccc(C(=O)Nc3ccc(OC)cc3)n2)cc1` [Example 20, 6-(2-{[2-(4-Methoxyphenyl)acetylamino]methyl}phenyl)pyridine-2-carboxylic acid (4-methoxyphenyl)amide], for which the IC50 is < 100 µM.

In the case of `COc1ccc(CC(=O)NCc2ccccc2-c2cccc(C(=O)NCc3ccc(F)cc3F)n2)cc1` [Example 21], half-maximal inhibition (IC50) was put at 5.7 µM.

On to `COc1ccc(CC(=O)NCc2ccccc2-c2cccc(C(=O)NCCc3ccccn3)n2)cc1` [Example 22], for which the IC50 was < 100 µM.

As for `COc1ccc(CCC(=O)NCc2ccccc2-c2cccc(C(=O)Nc3ccc(OC)cc3)n2)cc1` [Example 23], the IC50 is < 100 µM.

As to `CCOc1ccc(C(=O)NCc2ccccc2-c2cccc(C(=O)Nc3ccc(OC)cc3)n2)cc1` [Example 24], the IC50 was < 100 µM.

`COc1ccc(CC(=O)NCc2ccccc2-c2cncc(C(=O)NCc3ccc(F)cc3F)c2)cc1` [Example 26] returned an IC50 of 7.4 µM.

Take `COc1ccc(CC(=O)NCc2ccccc2-c2cccc(C(=O)NCc3ccc(F)cc3F)c2)cc1` [Example 27]: the IC50 came to 6 µM.

Turning to `COc1ccc(CC(=O)NCc2ccccc2-c2cccc(C(=O)NCCC(C)C)c2)cc1` [Example 28], half-maximal inhibition (IC50) was put at 4.2 µM.

Turning to `COc1ccc(CC(=O)NCc2ccccc2-c2cc(C(=O)NCCC(C)C)ccc2C)cc1` [Example 29], half-maximal inhibition (IC50) required 4 µM.

Turning to `COc1ccc(CCC(=O)NCc2ccccc2-c2cc(C(=O)NCCC(C)C)ccc2C)cc1` [Example 30], it took 3.1 µM to reach half-maximal inhibition (IC50).

By IC50 is commonly meant the concentration that inhibits the measured activity by half. Read a high IC50 as a need for much substance.
